# Measurements taken from patent US6350769B1 (The Regents of the University of California, priority 1999, dated 2002).
# Tests used:
# NOD-scid mice = experiment: adoptive transfer of IDDM to NOD-scid mice; assay type: in vivo; conditions: 600 μg/day
# Text: Ten to twenty million splenocytes from NOD mice with recent onset of IDDM were intravenously injected into recipient 6-week-old mice. […] (n=12 for both groups).
# A NOD strain congenic for the severe combined immunodeficiency (scid) mutation developed to study diabetogenesis in NOD mice was used in the adoptive transfer experiment. Neither insulitis nor diabetes is observed in the NOD-scid mice because they lack functional lymphocytes. This ensured that the T cells responsible for diabetes in recipient NOD-scid mice were derived from the diabetic donor NOD mice. Only female NOD mice were used since they incur a higher incidence of IDDM than males.
# The control mice received a placebo pellet instead the GABA pellet. The mice were monitored for diabetes onset by testing their urine glucose levels with Tes-tape and blood glucose levels with a glucometer. The onset of IDDM is defined as two consecutive blood glucose readings of over 300 mg/dl.
# CTLL-2 cells = experiment: control CTLL-2 cell response to recombinant murine IL-2; assay type: cell-based, mouse; conditions: 10 μM-10 mM
# Procedure: (§1) Mice (6-8 weeks in age) were injected with 20 nM GADp35 peptide in 50% complete Freund's adjuvant (CFA, Gibco) in their hind food-pad. […] The supernatant of the cultured cells was harvested and the activity of IL-2 was measured using the IL-2-dependent cell line CTLL-2. Recombinant mouse IL-2 (Genzyme) was used as a standard.
# lymph node T cell = experiment: antigen-primed lymph node T cell proliferative recall response (3H-thymidine incorporation); assay type: cell-based, NOD, Balb/c and AKR mice; conditions: for immuno-inhibitory effect of GABA on co-incubation with the compound: different (also high) concentrations of GABA, GADp35; for immuno-inhibitory effect of GABA on co-incubation with the compound / effect on GABA-mediated inhibition of T cell proliferation: co-incubation; for effect on GABA-mediated inhibition of T cell proliferation: 1 μM-500 μM
# Procedure: NOD, Balb/c and AKR mice were immunized with an immunogenic foreign (HEL) or self (GAD) peptide in 50% CFA. […] Groups of 5 mice were tested in two independent experiments.
# Lymph node mononuclear cells from GADp35 primed NOD mice were pretreated with different concentrations of muscimol or baclofen in vitro, and then challenged with 7 μM GADp35 to stimulate antigen specific T cell proliferation. The data are presented as the per cent ^3H-thymidine incorporation relative to control peptid-estimulated cells without muscimol or baclofen treatment. Lymph node mononuclear cells in medium alone served as negative controls. […] Groups of 5-6 mice were tested in two independent experiments.
# Groups of 5 mice were tested in three independent experiments.
# Lymph node mononuclear cells from NOD mice which were immunized with GADp35 were cultured with bicuculline, RU5135 or picrotoxin. […] The data are expressed as the per cent ^3H-thymidine incorporation relative to control antigen-stimulated cells without any drug treatment. […] Groups of 5-6 mice were tested in three independent experiments.
# Three strains of mice with different MHC class II alleles were immunized with an immunogenic peptide from hen egg lysozyme (HEL). […] Mice were injected with 20 nM peptide in 50% complete Freund's adjuvant (CFA, Gibco) in their hind food-pad.
# GAD peptides were selected from an overlapping set of peptides which span the GAD molecule (Atkinson et al. (1994) J. Clin. Invest. 94:2125-2129). GAD65 peptide 35 (GADp35) contains a self-antigen determinant for NOD (H-2^NOD; Taconic Farms) and BALB/c (H-2^d) mice (Jackson Laboratory) and GAD peptide 25 (GADp25) contains a self-antigen determinant for AKR (H-2^k) mice (Jackson Laboratory; Kaufman et al. (1993) Nature 366:69-72). Following immunization with 20 nM of immunogenic GAD peptide in 50% complete Freund's adjuvant (CFA, Gibco), T cell proliferation was assayed as described above.
# [1] = system: lymph node mononuclear cells from GADp35 immunized NOD mice; experiment: IL-2 production by antigen stimulated T cells (CTLL proliferation readout); assay type: cell-based; conditions: GADp35 at 2, 7 and 20 micromolar; 36 hours; different concentrations of GABA
# Procedure: The IL-2 activity in supernatant was determined by IL-2-dependent CTLL proliferation. The data are expressed as IL-2 units/ml±SD.
# as §1
# NOD mice = experiment: antigen-primed DTH response (KLH footpad swelling); assay type: in vivo
# Procedure: The next day, the mice were immunized with KLH in 50% CFA at the base of their tail. One week later, the mice were challenged with KLH in PBS in their right footpad, while the left footpad received ovalbumin in PBS as a control. Footpad swelling was expressed as the average size increase of the KLH injected footpad compared to the control footpad±SD (n=5 mice/group, *p<0.005, **p<0.002, ***p<0.001).
# The next day, the mice were immunized with 100 μg keyhole limpet hemocyanin (KLH, Sigma), a prototypic foreign antigen, in 50% CFA at the base of their tail. One week later, the mice were challenged with KLH (100 μg in 25 μl PBS) in their right footpad, while the left footpad received ovalbumin (100 μg in […] PBS) as a control. Both hind feet were measured before injection and at 24, 48, 72 and 96 hrs post injection using a monostat caliper. Footpad swelling was expressed as the average size increase (in millimeters) of the KLH-injected footpad compared to the control ovalbumin-injected footpad of each animal. The measurements were conducted in a blinded fashion on coded animals.
# splenic T cell = experiment: anti-CD3 stimulated splenic T cell proliferation (3H-thymidine incorporation); assay type: cell-based, Balb/c mice
# Procedure: During the last 8 hours of incubation, ^3H-thymidine (1 μCi/well) was added into each well to determine T cell proliferation. […] The background level of ^3H-thymidine incorporation in medium alone was 1,965-2,400 cpm. Groups of 5-6 mice were tested in two independent experiments.
# The data are presented as the mean percent ^3H-thymidine incorporation relative to the positive control from groups of 5-6 mice which were tested in 2-3 independent experiments.
# [2] = system: mononuclear splenic cells; experiment: T cell response to PMA and ionomycin; assay type: cell-based, mice; conditions: 10 μM-10 mM
# [3] = 21-day slow release GABA pellet
# [4] = NOD, Balb/c and AKR mice, 7 μM peptide, different concentrations of GABA
molecule,measurement,setting,value
"NCCCC(=O)O [GABA, γ-Aminobutyric acid]",diabetes incidence after adoptive transfer,NOD-scid mice; [3],significantly reduced diabetes incidence
same,onset of IDDM beginning at,NOD-scid mice; [3],4 weeks
same,onset of IDDM in mice that developed it,NOD-scid mice; [3],delayed onset
same,onset of IDDM beginning at,NOD-scid mice; 60-day slow release GABA pellet,7 weeks
same,CTLL-2 cell response to recombinant murine IL-2 on addition of compound,CTLL-2 cells,unaffected
same,T cell recall proliferation to foreign antigen (HEL peptides),lymph node T cell; [4],inhibit T cell proliferation to the immunogens in a dose-dependent manner
same,T cell recall proliferation to self-antigen (GAD peptides),lymph node T cell; [4],inhibit proliferative T cell responses to the injected antigen in all three strains of mice in a dose-dependent manner
same,antigen-induced IL-2 secretion,[1],reduced in a dose-dependent manner
same,signs of toxicity,NOD mice; mice implanted with GABA-releasing pellets (600 μg GABA/day),no obvious signs of toxicity
same,less footpad swelling in response to KLH than placebo-treated mice,"NOD mice; pellet releasing 600 μg/day GABA, under the skin, 24-72 hour response period, p<0.005",30-50%
same,impact on T cell survival,splenic T cell; in vitro culture,little impact on T cell survival
same,T cell proliferation with the compound itself (without anti-CD3),splenic T cell; without anti-CD3,failed to stimulate T cell proliferation
same,effect on T cell response to PMA and ionomycin,[2],did not significantly affect
C[C@]12CC[C@@H](O)C[C@H]1CC[C@@H]1[C@@H]2C(=O)C[C@]2(C)N=C(N)C[C@@H]12 [RU5315],immuno-inhibitory effect of GABA on co-incubation with the compound,lymph node T cell,greatly reduced
NCC(CC(=O)O)c1ccc(Cl)cc1 (centres unmarked) [baclofen],effect on T cell proliferation,lymph node T cell; 10 μM-10 mM,little effect
same,interference with the immuno-suppressive action of muscimol,"lymph node T cell; 10 μM-10 mM, with muscimol",did not interfere
N[C@@H](CCC(=O)O)C(=O)O [glutamic acid],"effect on T cell proliferative responses, alone or co-incubated with GABA",lymph node T cell; 10 μM-10 mM,little effect
NCc1cc(=O)[nH]o1 [muscimol],reduction of antigen primed T cell responses,"lymph node T cell; 300 μM, GADp35 primed NOD mice",approximately 40%
same,antigen-induced T cell proliferation,"lymph node T cell; different concentrations, 7 μM GADp35",inhibit in a dose-dependent manner
same,anti-CD3 induced T cell proliferation,splenic T cell; different concentrations,inhibit in a dose-dependent manner
O=C(O)C1CCCNC1 (centres unmarked) [nipecotic acid],effect on GABA-mediated inhibition of T cell proliferation,lymph node T cell,did not significantly affect
CCCC(C)C1(CC)C(=O)NC(=O)NC1=O (centres unmarked) [pentobarbital],effect on GABA inhibition of T cell responses,"lymph node T cell; 3 μM with different concentrations of GABA, 7 μM GADp35, 96 hours",potentiated the actions of GABA
same,impact of compound without GABA on antigen-primed T cell proliferation,"lymph node T cell; 3 μM, without GABA",little impact
NCCC(=O)O [β-alanine],"effect on T cell proliferative responses, alone or co-incubated with GABA",lymph node T cell; 10 μM-10 mM,little effect
C=CC(N)CCC(=O)O (centres unmarked) [γ-vinyl-GABA],effect on GABA-mediated inhibition of T cell proliferation,lymph node T cell,did not significantly affect
picrotoxin,immuno-inhibitory effect of GABA on co-incubation with the compound,lymph node T cell,almost abolished
